Experimental data as given in patent publication US9199962B2, “Substituted azaheterocycles for the treatment of cancer” (Merck Patent GmbH, priority 2011, dated 2015).
pIC50: −log10 of the molar value. Like-named read-outs stand apart in the source and are kept apart here.

What was measured:
[1] = molecular target: T1, GST-FAK (N-terminal GST fusion with truncated human FAK (376-1052 (end) amino acids)) (Homo sapiens, UniProt Q05397); test: Biochemical enzyme assay for FAK activity (Caliper LC3000 mobility shift); settings: 100 uM ATP
T1 construct: truncated human FAK (376-1052 (end) amino acids)
T1 sequence (Q05397 376-1052): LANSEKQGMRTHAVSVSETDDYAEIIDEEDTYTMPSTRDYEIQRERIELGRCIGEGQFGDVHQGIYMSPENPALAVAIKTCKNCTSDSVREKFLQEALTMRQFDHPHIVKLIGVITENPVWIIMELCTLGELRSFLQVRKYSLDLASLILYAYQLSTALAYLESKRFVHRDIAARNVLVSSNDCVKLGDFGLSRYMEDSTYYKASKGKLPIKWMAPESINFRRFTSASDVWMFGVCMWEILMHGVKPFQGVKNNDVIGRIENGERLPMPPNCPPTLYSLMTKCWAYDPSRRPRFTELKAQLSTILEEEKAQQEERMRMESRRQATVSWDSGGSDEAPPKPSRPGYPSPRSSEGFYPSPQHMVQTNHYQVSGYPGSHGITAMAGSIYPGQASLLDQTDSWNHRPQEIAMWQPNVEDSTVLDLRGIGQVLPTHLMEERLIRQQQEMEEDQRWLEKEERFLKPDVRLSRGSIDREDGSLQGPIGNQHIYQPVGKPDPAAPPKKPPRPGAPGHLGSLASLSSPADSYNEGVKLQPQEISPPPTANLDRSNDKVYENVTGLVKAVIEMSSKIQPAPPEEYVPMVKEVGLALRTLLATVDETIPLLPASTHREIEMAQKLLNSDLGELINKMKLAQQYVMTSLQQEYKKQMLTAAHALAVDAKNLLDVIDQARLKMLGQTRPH
Procedure, shortened: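 Inhibitor dose series in DMSO were incubated 90 min at 25 °C with truncated GST-tagged human FAK (0.067 ng/µl) and FITC-labelled peptide substrate (1 µM), with ATP at 100 µM and FERM peptide at 1 mM (pH 7.5 HEPES). After EDTA quench, phosphorylated and unphosphorylated peptides were resolved electrophoretically. Percent conversion was fitted for IC50.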

[2] = molecular target: T2, focal adhesion kinase (FAK) autophosphorylation at tyrosine 397 in HT29 cells (Homo sapiens, UniProt Q05397); test: Cellular testing of FAK inhibitors: FAK autophosphorylation at tyrosine 397 in HT29 cells (Luminex-based assay); assay type: cell-based; settings: 30 min serum-free
T2 construct: endogenous in cells; host or cells: HT29
T2 sequence (Q05397 whole entry): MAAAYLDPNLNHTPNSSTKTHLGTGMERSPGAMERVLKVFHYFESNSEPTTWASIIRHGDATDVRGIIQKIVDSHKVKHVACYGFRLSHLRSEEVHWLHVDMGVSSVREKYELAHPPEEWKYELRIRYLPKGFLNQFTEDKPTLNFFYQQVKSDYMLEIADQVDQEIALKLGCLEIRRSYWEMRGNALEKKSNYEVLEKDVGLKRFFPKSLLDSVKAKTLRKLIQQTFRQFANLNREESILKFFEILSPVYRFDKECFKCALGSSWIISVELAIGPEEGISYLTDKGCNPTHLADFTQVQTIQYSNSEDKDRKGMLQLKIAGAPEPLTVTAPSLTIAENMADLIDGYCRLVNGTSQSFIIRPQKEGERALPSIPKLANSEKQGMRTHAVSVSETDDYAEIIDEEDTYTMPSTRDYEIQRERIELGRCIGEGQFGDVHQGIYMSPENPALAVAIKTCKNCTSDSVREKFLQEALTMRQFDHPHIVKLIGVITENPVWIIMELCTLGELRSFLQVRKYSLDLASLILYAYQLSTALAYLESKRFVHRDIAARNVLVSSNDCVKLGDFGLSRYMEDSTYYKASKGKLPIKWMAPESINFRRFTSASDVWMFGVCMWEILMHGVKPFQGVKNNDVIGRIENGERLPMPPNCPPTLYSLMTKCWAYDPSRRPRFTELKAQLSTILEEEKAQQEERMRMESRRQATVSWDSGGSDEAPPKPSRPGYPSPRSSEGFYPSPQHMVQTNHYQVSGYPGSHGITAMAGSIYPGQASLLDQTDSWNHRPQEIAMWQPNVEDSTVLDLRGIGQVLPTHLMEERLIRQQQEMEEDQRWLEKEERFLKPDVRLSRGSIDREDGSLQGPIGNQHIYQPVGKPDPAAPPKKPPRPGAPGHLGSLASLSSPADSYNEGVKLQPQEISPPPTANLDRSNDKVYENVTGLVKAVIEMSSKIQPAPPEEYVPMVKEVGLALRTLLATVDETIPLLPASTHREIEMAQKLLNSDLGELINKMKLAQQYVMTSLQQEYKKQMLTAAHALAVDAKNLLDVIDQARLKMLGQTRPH
Description: 2. Assay Principle for Celluar Testing of FAK Inhibitors
Cellular activity of focal adhesion kinase (FAK) is determined by the degree of FAK autophosphorylation at tyrosine 397 using a Luminex-based assay. HT29 cells are plated with 30,000 cells per well of a 96-well plate in 100 μl medium (90% DMEM/10% FCS). At the following day, test compounds are added in a serial dilution under serum-free conditions for 30 min. Then, cells were lysed with 90 μl lysis buffer (20 mM Tris/HCl pH 8.0, 150 mM NaCl, 1% NP40, 10% Glycerol, 1% Phosphatase-Inhibitor II, 20 mM […]-Glycerolphosphat, 0.1% Protease-Inhibitor Cocktail III, 0.01% Benzonase) and lysates were cleared by centrifugation through a 96-well filter plate (0.65 μm). Samples were incubated with Luminex-beads which were coupled with an anti-total FAK antibody overnight at 4° C. with under gentle agitation. For detection of phospho-Y397-FAK a phosphospecific antibody and a species specific PE-labeled secondary antibody are added. The amount of phospho-Y397-FAK is determined in a Luminex100 machine measuring 100 events per well within 60 seconds.
Counts from samples treated with a FAK reference inhibitor are subtracted as pharmacological blank. Counts from samples treated with test compounds are calculated as percent of control from solvent treated (0.3% DMSO) samples. IC50 values were determined using AssayExplorer software.

[3] = Table 3, phospho-Y397-FAK, read-out: HT-29 IC50
[4] = Table 4, phospho-Y397-FAK, read-out: IC50 HT-29

**Q.** With `Clc1cncc(-c2nccc(NCc3cccc4nsnc34)n2)c1` [Compound 131, N-(2,1,3-Benzothiadiazol-4-ylmethyl)-2-(5-chloropyridin-3-yl)pyrimidin-4-amine] as the molecule, how does the pIC50 ([1]; Table 3, read-out: FAK IC50) read?
**A.** > 7.00

**Q.** What about the pIC50 [2, 3] of the same molecule?
**A.** < 5.00

**Q.** With `FC(F)(F)c1cncc(-c2nccc(NCc3ccc(Cl)cc3C(F)(F)F)n2)c1` [Compound 132, N-[4-Chloro-2-(trifluoromethyl)benzyl]-2-[5-(trifluoro-methyl)pyridin-3-yl]pyrimidin-4-amine] as the molecule, how does the pIC50 ([1]; Table 3, read-out: FAK IC50) read?
**A.** > 7.00

**Q.** What about the pIC50 [2, 3] of the same molecule?
**A.** 5.00 to 6.00

**Q.** With `Nc1ncc(Cl)cc1-c1nccc(NCc2ccc(F)cc2C(F)(F)F)n1` [Compound 134, 2-(2-Amino-5-chloropyridin-3-yl)-N-[4-fluoro-2-(trifluoromethyl)benzyl]pyrimidin-4-amine] as the molecule, how does the pIC50 ([1]; Table 3, read-out: FAK IC50) read?
**A.** > 7.00

**Q.** What about the pIC50 [2, 3] of the same molecule?
**A.** 5.00 to 6.00

**Q.** What does the source list for `CN(C)CCNC(=O)c1cc(NCc2ccc(F)cc2F)nc(-c2cncc(C(F)(F)F)c2)n1` [Compound 148, 6-[(2,4-difluorophenyl)methylamino]-N-(2-dimethylaminoethyl)-2-[5-(trifluoromethyl)-3-pyridyl]pyrimidine-4-carboxamide]?
**A.** pIC50 ([1]; Table 4, read-out: IC50 FAK): > 7.00; pIC50 [2, 4]: 6.00 to 7.00

**Q.** Which results are given for `Fc1ccc(F)c(CNc2ccnc(-c3cncc(C(F)(F)F)c3)n2)c1` [Compound 154, N-[(2,5-difluorophenyl)methyl]-2-[5-(trifluoromethyl)-3-pyridyl]pyrimidin-4-amine]?
**A.** pIC50 ([1]; Table 4, read-out: IC50 FAK): 6.00 to 7.00; pIC50 [2, 4]: 5.00 to 6.00

**Q.** Which results are given for `O=C(NCCN1CCCC1=O)c1cc(NCc2ccc(F)cc2F)nc(-c2cncc(C(F)(F)F)c2)n1` [Compound 160, 6-[(2,4-difluorophenyl)methylamino]-N-[2-(2-oxopyrrolidin-1-yl)ethyl]-2-[5-(trifluoromethyl)-3-pyridyl]pyrimidine-4-carboxamide]?
**A.** pIC50 ([1]; Table 4, read-out: IC50 FAK): > 7.00; pIC50 [2, 4]: 6.00 to 7.00
